Measured values published in article PMC9942793 (Proceedings of the National Academy of Sciences of the …, 2023).

Target: T1, SLO3 (Homo sapiens, UniProt A8MYU2)
T1 sequence (A8MYU2 1-1149): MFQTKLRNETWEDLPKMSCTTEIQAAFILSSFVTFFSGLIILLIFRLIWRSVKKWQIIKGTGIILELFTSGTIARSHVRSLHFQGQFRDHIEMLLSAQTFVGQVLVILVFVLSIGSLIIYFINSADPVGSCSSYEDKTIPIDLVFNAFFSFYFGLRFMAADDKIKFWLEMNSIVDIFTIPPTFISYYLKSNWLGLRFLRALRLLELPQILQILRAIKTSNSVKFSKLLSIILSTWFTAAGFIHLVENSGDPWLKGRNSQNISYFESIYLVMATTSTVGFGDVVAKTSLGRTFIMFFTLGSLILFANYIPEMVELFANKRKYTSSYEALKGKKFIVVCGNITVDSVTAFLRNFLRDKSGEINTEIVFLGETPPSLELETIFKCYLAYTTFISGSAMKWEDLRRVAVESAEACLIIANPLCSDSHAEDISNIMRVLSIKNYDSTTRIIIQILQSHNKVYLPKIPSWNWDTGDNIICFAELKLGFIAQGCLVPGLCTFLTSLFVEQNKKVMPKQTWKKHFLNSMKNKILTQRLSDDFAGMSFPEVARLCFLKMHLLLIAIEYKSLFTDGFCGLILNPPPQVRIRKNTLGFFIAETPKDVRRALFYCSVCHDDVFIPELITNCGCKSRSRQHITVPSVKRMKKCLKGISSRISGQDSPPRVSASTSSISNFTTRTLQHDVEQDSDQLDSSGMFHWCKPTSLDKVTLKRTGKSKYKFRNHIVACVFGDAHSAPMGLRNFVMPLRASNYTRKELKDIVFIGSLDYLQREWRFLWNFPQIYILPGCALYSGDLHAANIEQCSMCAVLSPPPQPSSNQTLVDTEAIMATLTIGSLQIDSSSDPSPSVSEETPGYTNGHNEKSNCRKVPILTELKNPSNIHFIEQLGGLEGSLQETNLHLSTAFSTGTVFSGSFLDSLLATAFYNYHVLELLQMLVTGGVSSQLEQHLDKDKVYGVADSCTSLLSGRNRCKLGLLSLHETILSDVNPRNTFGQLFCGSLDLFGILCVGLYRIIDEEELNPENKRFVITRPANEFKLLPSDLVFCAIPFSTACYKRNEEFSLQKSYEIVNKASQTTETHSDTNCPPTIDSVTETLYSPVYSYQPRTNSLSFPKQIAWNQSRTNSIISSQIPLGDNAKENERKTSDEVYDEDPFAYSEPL
T1 sequence (Q8N7C0 24-313 partner): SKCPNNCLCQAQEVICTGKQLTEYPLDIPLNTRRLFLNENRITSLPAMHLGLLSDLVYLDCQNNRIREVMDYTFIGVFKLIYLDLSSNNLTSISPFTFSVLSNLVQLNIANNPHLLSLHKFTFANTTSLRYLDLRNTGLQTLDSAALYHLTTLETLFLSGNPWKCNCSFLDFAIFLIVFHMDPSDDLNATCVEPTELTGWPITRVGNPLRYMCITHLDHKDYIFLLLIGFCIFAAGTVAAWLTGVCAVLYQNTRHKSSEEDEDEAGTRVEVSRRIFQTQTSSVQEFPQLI
Experiment: Tl+ flux assay
Assay type: cell-based

With `FC(F)(F)c1cc(NC(=S)Nc2ccc(Br)cc2-c2nnn[nH]2)cc(C(F)(F)F)c1` [NS11021] as the molecule, how does the “Tl+ flux assay (activation; 100 μM used in the screen)” value read?
The value was “found that the SLO1 activator NS11021 also activates SLO3 at high concentrations (Fig. 1B)”.
